Legend:
H9c2 cells [1] = assay: Menadione-induced toxicity (LDH) in H9c2 cells; assay type: cell-based, rat
Method: (§1) H9c2 cells, a permanent cell line derived from cardiac myoblasts of rat embryo, have early been characterized as a suitable model of myocardial cells [Hescheler et al. 1991]. H9c2 cells were cultured as monolayers in Dulbecco's modified Eagle's medium (GIBCO BRL) supplemented with 10% (v/v) fetal bovine serum. The medium contained glucose (4.5 g/L) and glutamine (4.5 mM), supplemented with NaHCO3 (17 mM), penicillin (100 IU/ml), and streptomycin (100 μg/ml). Cells were grown under an atmosphere of 5% CO2 in air at 37° C. The medium was replaced by fresh medium every 2 or 3 days. A stock of cells was grown in a 75 cm culture flask and split before confluence at a subcultivation ratio of 1:10. Cells used for experiments were seeded at a density of 3.75×10^4 cells/well on a 12-well culture plate, and the cells were grown for 24 h to about 80% confluence prior to drug treatment.
(§2) Cultured H9c2 cells were treated with (−) Schisandrin B, (+) Schisandrin B or (±) Schisandrin B (dissolved in DMSO) at 6.25 μM (0.2% DMSO final concentration) for 16 h. Control cells were given the vehicle (i.e. DMSO) only. Immediately following the drug or vehicle pretreatment, the cells were challenged with menadione (dissolved in ethanol) at 12.5 μM (0.2% ethanol final concentration) for 4 h. The control cells were treated with the medium containing 0.2% ethanol only. After the menadione challenge, the medium was taken for the measurement of LDH activity, an biochemical index of cell injury.

H9c2 cells [2] = assay: Cellular GSH level in H9c2 cells with or without menadione challenge; assay type: cell-based, rat
Method: as §1, §2
The cells were washed twice with 0.5 ml cold phosphate-buffered saline (PBS), An aliquot (200 μl) of 3% sulfonsalicyclic acid was then added, and the mixture was incubate at 4° C. for 10 min. After centrifuging at 300 g for 15 min at 4° C., the supernatant was used for GSH measurement by an enzymatic method of Griffith (1980).

[3] = test system: mitochondria of brain, heart, liver and skeletal muscle; assay: Mitochondrial reactive oxidant species (ROS) generation in tissues of young adult and middle-aged rats; assay type: in vivo, rat
Method: Young adult (8-10 week-old) and middle-aged (12-14 month-old retired breeder) female Sprague-Dawley rats were maintained under a 12-h dark/light cycle at about 22° C. and allowed food and water ad libitum. Experimental protocols were approved by the Research Practice Committee at the Hong Kong University of Science & Technology, Hong Kong. Animals were randomly divided into groups, with 5 animals in each. In the treatment groups, rats were intragastrically administered with Sch B (dissolved/suspended in olive oil) at a daily dose of 10 mg/kg for 15 days. The daily dose is approximated to 1.14 mg/kg for humans after adjusting the inter-species difference in drug distribution in the body. Untreated control animals received olive oil only. Twenty-four hours after the last dosing, animals were sacrificed by decapitation and the whole brain, heart ventricular, liver and skeletal muscle (hind limb) tissues were excised and subjected to biochemical analysis. To investigate the effect of (−) Sch B on myocardial ischemia-reperfusion […] injury, rats were intragastrically administered with (−) Sch B at a daily dose of 10 mg/kg for 35 days. Untreated control animals received olive oil only. […]
Mitochondrial pellets were prepared from tissue homogenates by centrifugation at 800×g at 4° C. for 30 min, with purity being determined by measuring the relative specific activities of succinate dehydrogenase and lactate dehydrogenase (LDH) in the supernatant and mitochondrial pellet. […] The protein concentration of mitochondrial fractions was determined using a Bio-Rad protein assay kit.
An aliquot (50 μl) of mitochondrial fraction (50 μg protein/ml) and 60 μl of DCFDA solution (17.5 μM in incubation buffer) were added into wells of a black micro-titer plate. […] Fluorescence intensity (excitation: 485 nm and emission: 535 nm) of the reaction mixture was monitored every 5 min for 60 min. The mitochondrial ROS generation was reflected by the fluorescence intensity of the sample after subtracting the value of a blank sample containing incubation buffer, substrate solution and DCFDA. […]

[4] = MENADIONE 12.5 μM for 4 h, drug 6.25 μM for 16 h
[5] = NON-MENADIONE, 6.25 μM for 16 h

COc1cc2c(c(OC)c1OC)-c1c(cc3c(c1OC)OCO3)CC(C)C(C)C2 (single isomer, unassigned; (-)) [(−) Sch B, (−) Schisandrin B]
LDH (H9c2 cells [1]; [4]): 20.6 ± 0.18 U/ml | LDH, percent protection vs menadione control (H9c2 cells [1]; [4]): (60%) | LDH (H9c2 cells [1]; [5]): 14.3 ± 0.29 U/ml | GSH Level (H9c2 cells [2]; [4]): 33.3 ± 1.75 nmol/mg protein | GSH Level, percent increase vs menadione control (H9c2 cells [2]; [4]): (81%) | GSH Level (H9c2 cells [2]; [5]): 64.0 ± 2.96 nmol/mg protein | GSH Level, percent increase vs non-menadione control (H9c2 cells [2]; [5]): (84%) | decrease of mitochondrial ROS generation ([3]; middle-aged rats, 10 mg/kg/day x 15, range among tissues): 11-23% | difference in liver mitochondrial ROS generation between control and treated ([3]; middle-aged rats, liver): not statistically significant | suppression of mitochondrial ROS generation ([3]; young adult rats, 10 mg/kg/day x 15, range among all tissues): 16-38%

Reference: patent US7531195B2, “Schisandrin B preparation” (priority 2005, dated 2009)
